What all share (type): cell-based
The subject of test [1] is A549 human lung carcinoma cells. Nature of the test: MTS cytotoxicity counter-screen of reconfirmed hits. Conditions: MTS assay, 72 h, doubling dilutions from 10 µM; read-out: A549 Mean IC50. The protocol:
Cytotoxicity of the reconfirmed hits was determined by using the CellTiter 96® AQueous One Solution Cell Proliferation Assay (Promega, Madison, WI) on A549 human lung carcinoma cells. A549 cells were seeded at a concentration of 1.6 × 10^4 cells/mL in 96-well tissue culture plates (Corning, NY, USA), in the presence of serially diluted active hits against B. mandrillaris, N. fowleri, or A. castellanii. Positive control wells contained cells and media; negative control wells contained 0.1% DMSO. Cells were grown in F12K medium supplemented with 10% FBS and 1% gentamycin (all supplied from Fisher Scientific, Atlanta, GA, USA). The inhibitor concentration started at 10 µM and was diluted in doubling dilutions to assess cytotoxicity in comparison to the respective free-living amoeba. Total volume of each well was 100 µL and plates were incubated at 37 °C, 5% CO2 for 72 h. Next, 4 h before the time-point, 20 µL of MTS (Promega, Madison, WI, USA) was added to each well. Inhibition of A549 growth was assessed at the 72 h time-point measuring the optical density (OD) values at 490 nm using a SpectraMax I3X plate reader (Molecular Devices, Sunnyvale, CA, USA). Curve fitting using non-linear regression was carried out using the average of replicates and the Levenberg–Marquardt algorithm, using DMSO as the normalization control, as defined in CDD Vault (Burlingame, CA, USA).
In general terms: The purpose of a counterscreen is to sort out artefacts and off-target activity.

For test [2], the system named is Acanthamoeba castellanii trophozoites. The experiment in a line: CellTiter-Glo 2.0 trophocidal assay, A. castellanii. The note with it: for IC50: CTG method, 72 h, duplicate twofold serial dilutions from 10 µM, mean ± SD. The protocol:
This isolate was also purchased from ATCC. Trophozoites were routinely grown axenically at 27 °C in Protease Peptone-Glucose Media (PG) in non-vented 75 cm^2 tissue culture flasks (Olympus, El Cajon, CA, USA), until the cells were 80–90% confluent. For sub-culturing, cells were mechanically harvested to detach the cells from the culture flasks. The cells were collected by centrifugation at 4000 rpm at 4 °C.
The trophocidal activity of compounds was assessed using the CellTiter-Glo 2.0 luminescent viability assay (Promega, Madison, WI, USA), as previously described. Trophozoites were routinely cultured as described above and only logarithmic trophozoites were used. […] Initially all compounds were assessed in a single-point drug screen at 10 and 1 μM, as previously described. […] We used this process to reduce the number of potential false positives. Drugs were cherry-picked, dissolved in the media specific to each parasite, and assessed in twofold serial dilutions from the highest concentration of 10 μM. All assays were incubated at each of the parasites’ representative growth temperatures, described above, for 72 h. At the 72 h time point, 25 μL of CellTiter-Glo 2.0 reagent was added to all wells of the 96-well plates using the Biomek NX^P automated workstation. The plates were protected from light and contents were mixed using an orbital shaker at 300 rpm at room temperature for 2 min to induce cell lysis. After shaking, the plates were equilibrated at room temperature for 10 min to stabilize the luminescent signal. The adenosine triphosphate (ATP) luminescent signal (relative light units; RLUs) was measured at 490 nm with a SpectraMax I3X plate reader (Molecular Devices, Sunnyvale, CA, USA). Drug inhibitory concentration (IC50) curves were generated using total ATP RLUs, where controls were calculated as the average of replicates using the Levenberg–Marquardt algorithm, using DMSO as the normalization control, as defined in Collaborative Drug Discovery Inc. (CDD) Vault (Burlingame, CA, USA). Values reported are from a minimum of two biological replicates with standard deviations.

Test [3] concerns Balamuthia mandrillaris trophozoites. Nature of the test: CellTiter-Glo 2.0 trophocidal assay, B. mandrillaris. Conditions: for IC50: CTG method, 72 h, duplicate twofold serial dilutions from 10 µM, mean ± SD. The protocol: Pathogenic Balamuthia mandrillaris (CDC:[…]; American Type Culture Collection (ATCC) 50209), a GAE isolate, isolated from a pregnant baboon at the San Diego Zoo in 1986 was donated by Luis Fernando […] University, Mexico [43]. Trophozoites were routinely grown axenically in Balamuthia mandrillaris Itson (BMI) media at 37 °C, 5% CO2 in vented 75 cm^2 tissue culture flasks (Olympus, El Cajon, CA, USA), until the cells were 80-90% confluent. For sub-culturing, 0.25% Trypsin-EDTA (Gibco, Gaithersburg, MD, USA) cell detachment reagent was used to detach the cells from the culture flasks. The cells were collected by centrifugation at 4000 rpm at 4 °C. Complete BMI media is produced by the addition of 10% fetal bovine serum (FBS) and 125 μg of penicillin/streptomycin antibiotics. The trophocidal activity of compounds was assessed using the CellTiter-Glo 2.0 luminescent viability assay (Promega, Madison, WI, USA), as previously described. Trophozoites were routinely cultured as described above and only logarithmic trophozoites were used. […] Inhibitors were assessed for percent inhibition using the criteria of ≤33% growth inhibition (no inhibition), 33-67% growth inhibition (moderate inhibition), and ≥67% growth inhibition (strong inhibition). […] We used this process to reduce the number of potential false positives. […] All assays were incubated at each of the parasites' representative growth temperatures, described above, for 72 h. At the 72 h time point, 25 μL of CellTiter-Glo 2.0 reagent was added to all wells of the 96-well plates using the Biomek NX^P automated workstation. The plates were protected from light and contents were mixed using an orbital shaker at 300 rpm at room temperature for 2 min to induce cell lysis. After shaking, the plates were equilibrated at room temperature for 10 min to stabilize the luminescent signal. The adenosine triphosphate (ATP) luminescent signal (relative light units; RLUs) was measured at 490 nm with a SpectraMax I3X plate reader (Molecular Devices, Sunnyvale, CA, USA). Drug inhibitory concentration (IC50) curves were generated using total ATP RLUs, where controls were calculated as the average of replicates using the Levenberg-Marquardt algorithm, using DMSO as the normalization control, as defined in Collaborative Drug Discovery Inc. (CDD) Vault (Burlingame, CA, USA). Values reported are from a minimum of two biological replicates with standard deviations.
(In general: Cellular ATP, detected with luciferase, serves as a proxy for viable cell number.)

The test system of test [4] is Naegleria fowleri trophozoites. The experiment in a line: CellTiter-Glo 2.0 trophocidal assay, N. fowleri. The note with it: CTG method, 72 h, duplicate twofold serial dilutions from 10 µM, mean ± SD; read-out: N. fowleri Mean IC50 (µM) ± SD. The protocol:
Pathogenic Naegleria fowleri (ATCC 30215), a clinical isolate obtained from a child in Adelaide, Australia, that died of PAM in 1969 was previously purchased from the American Type Culture Collection (ATCC). Trophozoites were routinely grown axenically at 34 °C in Nelson’s complete medium (NCM) in non-vented 75 cm^2 tissue culture flasks (Olympus, El Cajon, CA, USA), until the cells were 80–90% confluent. For sub-culturing, cells were placed on ice to detach the cells from the culture flasks. The cells were collected by centrifugation at 4000 rpm at 4 °C. Complete NCM media is produced by the addition of 10% FBS and 125 μg of penicillin/streptomycin antibiotics.
The trophocidal activity of compounds was assessed using the CellTiter-Glo 2.0 luminescent viability assay (Promega, Madison, WI, USA), as previously described. Trophozoites were routinely cultured as described above and only logarithmic trophozoites were used. In brief, B. mandrillaris, N. fowleri, or A. castellanii trophozoites cultured in their corresponding media were seeded at 16,000, 3000, or 1440 cells/well into white 96-well plates (Costar 3370), respectively. Initially all compounds were assessed in a single-point drug screen at 10 and 1 μM, as previously described. […] Control wells were supplemented with 0.1% (10 μM screening plate) or 0.01% (1 μM screening plate) DMSO, as the negative controls, or 12.5 μM of chlorhexidine, as the positive control. Following the single-point assays at 10 and 1 µM, we prioritized compounds for progression to IC50 determinations. […] We used this process to reduce the number of potential false positives. Drugs were cherry-picked, dissolved in the media specific to each parasite, and assessed in twofold serial dilutions from the highest concentration of 10 μM. All assays were incubated at each of the parasites’ representative growth temperatures, described above, for 72 h. At the 72 h time point, 25 μL of CellTiter-Glo 2.0 reagent was added to all wells of the 96-well plates using the Biomek NX^P automated workstation. The plates were protected from light and contents were mixed using an orbital shaker at 300 rpm at room temperature for 2 min to induce cell lysis. After shaking, the plates were equilibrated at room temperature for 10 min to stabilize the luminescent signal. The adenosine triphosphate (ATP) luminescent signal (relative light units; RLUs) was measured at 490 nm with a SpectraMax I3X plate reader (Molecular Devices, Sunnyvale, CA, USA). Drug inhibitory concentration (IC50) curves were generated using total ATP RLUs, where controls were calculated as the average of replicates using the Levenberg–Marquardt algorithm, using DMSO as the normalization control, as defined in Collaborative Drug Discovery Inc. (CDD) Vault (Burlingame, CA, USA). Values reported are from a minimum of two biological replicates with standard deviations.

SMILES strings stand for the structures.

Results on four molecules are retold here after publication PMC7344389, “Discovery of Anti-Amoebic Inhibitors from Screening the MMV Pandemic Response Box on Balamuthia mandrillaris, Naegleria fowleri, and Acanthamoeba castellanii” (Pathogens, 2020).

By IC50 is commonly meant the midpoint of a concentration-inhibition curve.

In the case of `O=C1C=C(c2ccccc2)S(=O)(=O)c2ccccc21` [1,1-dioxide 1-thioflavone], the IC50 in test [1] was > 10 µM; in test [2], > 10 µM; in test [3], 0.37 ± 0.01 µM; in test [4], 5 µM. The “potency against B. mandrillaris, in words” value in test [3] (dose-response, CTG) is “nanomolar potency”.
In the case of `Clc1cc(Cl)c2c(c1)CCc1ccccc1C2n1ccnc1` (stereo not drawn) [Eberconazole], the IC50 in test [1] is > 10 µM; in test [2], 3.7 ± 1.13 µM; in test [2] (listed as eberconazole), ≤ 10 µM; in test [3], > 10 µM; in test [4], 1.22 ± 0.66 µM.
On to `O[C@@](Cn1cnnn1)(c1ccc(F)cc1F)C(F)(F)c1ccc(-c2ccc(OCC(F)(F)F)cc2)cn1` [MMV1634386], for which the IC50 in test [1] was > 10 µM; in test [2], 0.16 ± 0.09 µM; in test [3], > 10 µM; in test [4], 2.4 ± 1.7 µM. In addition, the “potency against A. castellanii, in words” value in test [2] (dose-response, CTG) was “nanomolar potency”.
For `O=C(/C(=C/c1ccc(Cl)cc1Cl)n1ccnc1)c1ccc(Cl)cc1` [MMV1634491], the IC50 was > 10 µM in test [1], > 10 µM in test [3] and 5.15 ± 1.35 µM in test [4].
